The target of data set [1] is T1, Human DP receptor (Homo sapiens, UniProt Q13258).
T1 construct: expressed in transfected cells
T1 sequence (Q13258 1-359): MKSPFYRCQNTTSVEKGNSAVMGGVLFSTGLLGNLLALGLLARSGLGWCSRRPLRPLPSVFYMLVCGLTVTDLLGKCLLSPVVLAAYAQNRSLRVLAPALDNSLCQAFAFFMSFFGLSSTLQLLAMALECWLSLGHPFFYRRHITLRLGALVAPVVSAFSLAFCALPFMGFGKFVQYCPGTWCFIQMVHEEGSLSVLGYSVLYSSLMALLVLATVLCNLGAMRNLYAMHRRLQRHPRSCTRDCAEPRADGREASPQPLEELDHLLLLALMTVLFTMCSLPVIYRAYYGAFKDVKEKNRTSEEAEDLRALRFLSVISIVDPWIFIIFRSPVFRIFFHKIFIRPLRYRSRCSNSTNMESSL
As to the kind of experiment: Measurement of DP receptor antagonistic activity using human DP receptor expressing cells (cAMP-HTRF). It is filed as cell-based. As to conditions: inhibition of cAMP production increased by 10 nmol/L prostaglandin D2. The method, then:
Biological Example 1: Measurement of DP Receptor Antagonistic Activity Using Human DP Receptor Expressing Cells
cAMP-HTRF kit (SCETI MEDICAL LABO K.K., 62AM6PEJ) was used to measure DP receptor antagonistic activity. To a 384 well plate was added 10 μL/well of the compound of the present invention prepared at various concentrations and prostaglandin D2 (final concentration 10 nmol/L). Human DP receptor-expressing cells were suspended in phosphate buffer containing 2 μmoL/L diclofenac and 1 mmol/L IBMX (3-isobutyl-1-methylxantine) and seeded to 5000 cells/10 μL/well. After cell seeding, the cells were incubated at room temperature for 1 hour. Thereafter, anti-cAMP Cryptate conjugate and a cAMP-d2 solution were added according to a method of the measurement kit, and the mixture was incubated at room temperature for 1 hour, then the cAMP concentration in the sample was quantified.
Intensity of DP receptor antagonistic action by the compound of the present invention was represented by IC50 value (concentration of the compound of the present invention required to inhibit 50% of cAMP production in the absence of the compound of the present invention) calculated from an inhibition ratio to the cAMP production increased by 10 nmol/L prostaglandin D2 stimulation.
Background: Time-resolved FRET reads energy transfer from a long-lived donor to a nearby acceptor.

The nature of data set [2]: Measurement of concentration of compound in cerebrospinal fluid (CSF) after oral administration. As to conditions: rat, 3 mg/kg, male Wistar rats, oral 3 mg/5 mL/kg, five test substances mixed, CSF collected 3 hours after administration. It is filed as in vivo. The method, then:
Pharmacokinetic Test 1: Measurement of Concentration of Compound of Present Invention in Cerebrospinal Fluid (Hereinbelow, CSF)
Five test substances were mixed, and a test substance solution was prepared so that the dose of each test substance was 3 mg/5 mL/kg. The medium used was 5% DMSO 20% kolliphor HS15/propylene glycol (7:3). The test substance solution was orally administered to male 8- to 10-week-old Wistar rats purchased from Charles River Japan. Three hours after administration, the rats were anesthetized and CSF was collected by cisternal puncture. The same amount of ethanol (wako) as CSF was taken with a syringe used for collection, and the compound adsorbed on the syringe was recovered by washing.
Candesartan (TRC) was used as an internal standard substance, 40 μL of acetonitrile and 160 μL of Candesartan-containing acetonitrile/ethanol (7:3) were added to 10 μL of the obtained CSF sample, and the mixture was stirred. To prepare a calibration curve, 40 μL of the compound solution and 160 μL of Candesartan-containing acetonitrile/ethanol (7:3) were added to 10 μL of plasma, and the mixture was stirred. The entire amount of each solution was transferred to a deproteinization filter plate and suction filtered. The obtained filtrate was appropriately diluted with acetonitrile/water (1:1) and used for measurement. In the measurement, standard samples for calibration curve were prepared in the same matrix and analyzed in the same manner. The measurement was performed under the following conditions.
Liquid Chromatography System: Prominence UFLCXR (Shimadzu Corporation),
Column: Shim-pack XR-ODSII 2.0 mm ID×75 mm (Shimadzu Corporation),
Column temperature: 40° C.,
Mobile phase: A: 0.2% formic acid 5 mmol/L ammonium acetate aqueous solution, B: acetonitrile,
Mass spectrometry system: API4000, API5000 (AB SCIEX)
A regression equation was calculated from the peak area ratio (peak area of the test substance/peak area of the internal standard substance) obtained by measuring the standard samples for calibration curve using analysis software Analyst ver. 1.5.2 (AB SCIEX). The peak area ratio was also obtained for a measurement sample and substituted into the regression equation to calculate a quantitative value. In calculation of mean value and standard deviation, points below the lower limit of quantification were calculated as 0.

Data set [3] deals with normal rat. As to the kind of experiment: Effect of prolonging normal rat awakening time (electroencephalogram/electromyogram). It is filed as in vivo. As to conditions: rats, single oral dose of 3 mg/kg. The method, then: Biological Example 2: Effect of Prolonging Normal Rat Awakening Time
Chronic electrodes were placed in the brain and cervical muscles of rats to prepare rats in which electroencephalogram and electromyogram can be measured. After a recovery period of one week or more, the rat and a biological signal amplifier were connected in a shield box that blocked sound and electrical noise. After acclimatization in a measurement cage for 1 hour or more, various doses of the compound of the present invention were orally administered to rats in a single dose, and electroencephalogram and electromyogram were recorded 6 hours after the oral administration. After the measurement was completed, the rats were returned to a breeding cage each time, and a vehicle and each compound were evaluated with a washout period of one week or more.
The recorded electroencephalogram and electromyogram were analyzed using SleepSign Ver. 3 and divided into epochs every 10 seconds, and the stage was determined for any of awakening, non-REM sleep or REM sleep, with reference to characteristics of the electroencephalogram and electromyogram and spectral analysis results of each frequency component of the brain wave. […]

A word on the IC50: it is the concentration that inhibits the measured activity by half. The low end stands for higher potency, the high end for lower potency.

With `Cc1cc(OCCC2CCCCC2)cc(C)c1C(=S)Nc1cc(CC(=O)O)ccc1Cl` [Example 10-1, (4-Chloro-3-{[4-(2-cyclohexylethoxy)-2,6-dimethylbenzene-1-carbothioyl]amino}phenyl)acetic Acid], the IC50 in data set [1] was 1.7 nM. Further, the concentration at 3 h in data set [2] was found to be 36 ng/mL.
On the same counts, the results for `Cc1cc(C#CCC2CCCCC2)cc(C)c1C(=O)Nc1cc(CC(=O)O)ccc1Cl` [Example 7, {4-Chloro-3-[4-(3-cyclohexylprop-1-yn-1-yl)-2,6-dimethylbenzamide]phenyl}acetic Acid] are 16 nM and 45 ng/mL.
The matching figures for `Cc1cc(OCCC2CCCCO2)cc(C)c1C(=S)Nc1cc(C(C)(C)C(=O)O)ccc1F` (stereo not drawn) [Example 20, 2-{3-[({2,6-Dimethyl-4-[2-(tetrahydro-2H-pyran-2-yl)ethoxy]phenyl}carbothioyl)amino]-4-fluorophenyl}-2-methylpropanoic Acid]: 35 nM and 52 ng/mL.
For the compound `Cc1cc(OCCC2CCCCO2)cc(C)c1C(=S)Nc1cc(CC(=O)O)ccc1Cl` (stereo not drawn) [Example 10, [4-Chloro-3-({2,6-dimethyl-4-[2-(oxan-2-yl)ethoxy]benzene-1-carbothioyl}amino)phenyl]acetic Acid], the IC50 in data set [1] is 9.6 nM. Further, the concentration at 3 h in data set [2] worked out at 43 ng/mL.
Regarding `Cc1cc(OC2Cc3ccccc3C2)cc(C)c1C(=O)Nc1cc(CC(=O)O)ccc1F` [Example 5, (3-{4-[(2,3-Dihydro-1H-inden-2-yl)oxy]-2,6-dimethylbenzamide}-4-fluorophenyl)acetic Acid], in data set [1], half-maximal inhibition (IC50) required 10 nM.
In data set [2], `O=C(O)Cc1ccc(Cl)c(NC(=S)c2ccc(OCCC3CCCCO3)cc2C(F)(F)F)c1` (stereo not drawn) [Example 10-2, [4-Chloro-3-({4-[2-(oxan-2-yl)ethoxy]-2-(trifluoromethyl)benzene-1-carbothioyl}amino)phenyl]acetic Acid] showed a concentration at 3 h of 55 ng/mL.
`Cc1cc(OCCC2CCCCO2)cc(C)c1C(=O)Nc1cc(CC(=O)O)ccc1Cl` (stereo not drawn) [Example 4, (4-Chloro-3-{2,6-dimethyl-4-[2-(oxan-2-yl)ethoxy]benzamide}phenyl)acetic Acid] yielded an IC50 in data set [1] of 58 nM.
Turning to `Cc1cc(OCCC2CCCCO2)cc(C)c1C(=S)Nc1cc(C(C)C(=O)O)ccc1Cl` (stereo in doubt) [Example 21, 2-(4-Chloro-3-{[(2,6-dimethyl-4-{2-[(2R)-tetrahydro-2H-pyran-2-yl]ethoxy}phenyl)carbothioyl]amino}phenyl)propanoic Acid], the half-inhibitory concentration (IC50) in data set [1] worked out at 7.8 nM. Also, the concentration at 3 h in data set [2] is 66 ng/mL.
On the same counts, the results for `O=C(O)Cc1ccc(Cl)c(NC(=S)c2ccc(OCCc3ccccc3)cc2C(F)(F)F)c1` [Example 10-4, (4-Chloro-3-{[4-(2-phenylethoxy)-2-(trifluoromethyl)benzene-1-carbothioyl]amino}phenyl)acetic Acid] are 5.1 nM and 34 ng/mL.
Take `Cc1cc(OCC[C@H]2CCCCO2)cc(C)c1C(=S)Nc1cc(CC(=O)O)ccc1Cl` [Example 12, {4-Chloro-3-[(2,6-dimethyl-4-{2-[(2R)-oxan-2-yl]ethoxy}benzene-1-carbothioyl]amino}phenyl}acetic Acid]: the midpoint of inhibition in data set [1], the IC50, lay at 4.8 nM. Also, in data set [2], the concentration at 3 h was 48 ng/mL. The “awakening time-prolonging effect (difference in total awakening time of 6 hours after administration vs vehicle-administered group)” value in data set [3] turned out to be 60 min.
In data set [1], `Cc1cc(OCCC2CCCCC2)cc(C)c1C(=O)Nc1cc(CC(=O)O)ccc1Cl` [Example 4-1, {4-Chloro-3-[4-(2-cyclohexylethoxy)-2,6-dimethylbenzamide]phenyl}acetic Acid] yielded a half-inhibitory concentration (IC50) of 11 nM. Further, the concentration at 3 h in data set [2] came out at 29 ng/mL.
With `Cc1cc(/C=C/CC2CCCCC2)cc(C)c1C(=O)Nc1cc(CC(=O)O)ccc1Cl` [Example 8, (4-Chloro-3-{4-[(1E)-3-cyclohexylprop-1-en-1-yl]-2,6-dimethylbenzamide}phenyl)acetic Acid], in data set [1], the 50% inhibitory concentration (IC50) stood at 3.7 nM. Moreover, in data set [2], the concentration at 3 h was 28 ng/mL. Further, in data set [3], the “awakening time-prolonging effect (difference in total awakening time of 6 hours after administration vs vehicle-administered group)” value is 48 min.
Compound `O=C(O)Cc1ccc(Cl)c(NC(=O)c2ccc(OCCC3CCCCC3)cc2C(F)(F)F)c1` [Example 2-1, {4-Chloro-3-[4-(2-cyclohexylethoxy)-2-(trifluoromethyl)benzamide]phenyl}acetic Acid] yielded an IC50 in data set [1] of 34 nM.

The values are drawn from US11319296B2, “DP antagonist” (ONO PHARMACEUTICAL CO., LTD., priority 2018, dated 2022).
